Source: patent publication US5670667A, “Chroman-2-ylmethylamino derivatives” (American Home Products Corporation, priority 1996, dated 1997)

Assays:
[1] = target: T1, 5-HT1a (Homo sapiens, UniProt P08908); assay: biochemical; format: binding
T1 sequence (P08908 1-422): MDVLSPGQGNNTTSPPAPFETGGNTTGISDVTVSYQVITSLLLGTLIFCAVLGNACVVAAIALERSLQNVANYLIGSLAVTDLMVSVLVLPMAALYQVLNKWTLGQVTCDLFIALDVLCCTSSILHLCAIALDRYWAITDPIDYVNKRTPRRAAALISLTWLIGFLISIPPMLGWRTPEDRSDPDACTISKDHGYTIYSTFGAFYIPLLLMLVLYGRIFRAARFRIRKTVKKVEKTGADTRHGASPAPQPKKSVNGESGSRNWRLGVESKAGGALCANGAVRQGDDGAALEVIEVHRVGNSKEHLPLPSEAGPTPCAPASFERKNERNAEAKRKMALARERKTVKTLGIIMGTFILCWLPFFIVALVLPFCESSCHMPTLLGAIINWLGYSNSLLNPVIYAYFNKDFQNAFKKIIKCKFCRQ

[2] = tested on: α1; assay: α1 IC50; format: binding

SMILES	IC50 [1]	IC50 [2]
Oc1ccc2c(c1)OC(CNCc1ccccc1)CC2 (centres unmarked) [Example 1f, 2-(Benzylamino-methyl)-chroman-7-ol]	104 nM	1140 nM
Fc1ccc(CNCC2CCc3ccccc3O2)cc1 (centres unmarked) [reference compound]		1280 nM
c1ccc(CNCC2CCc3ccccc3O2)cc1 (centres unmarked) [reference compound]		630 nM
Oc1ccc2c(c1)OC(CNCCCCc1ccccc1)CC2 (centres unmarked) [Example 1m, 2-[(4-Phenyl-butylamino)-methyl]-chroman-7-ol]		80 nM
